“Also recorded” adds a separate entry of the source. Ends that are not written are not given here.
Assays:
[1] = target: T1, iNOS (Homo sapiens, UniProt P35228); test: iNOS activity in AtT-20 cells stably expressing iNOS, transiently transfected with Kalirin-7, Kalirin domain or section plasmids; type: cell-based, mouse
T1 construct: expressed in transfected cells
Experimental: Assays for iNOS and NOS-The hippocampal and cerebellar specimens and the transfected cells were homogenized in 50 mM Tris HCl (pH 7.4), 1 mM EDTA, 0.1 mM tetrahydrobiopterin, 2 mM dithiothreitol, 10% (v/v) glycerol, aprotinin (25 μg/ml), leupeptin (25 μg/ml), 100 μM PMSF, 10 μM FMN, and 10 μM FAD. […] The collective activity of NOS (including eNOS, nNOS and iNOS) was determined in an identical fashion to iNOS activity, but in the presence of 1.25 mM Ca^2+. Cell culture and transfection-AtT-20 cells (ATCC# CCL-89), SH-SY5Y cells (ATCC# CRL-2266), C6 cells (ATCC# CCL-107) and Neuro-2A cells (ATCC # CCL-131) were cultured according to the supplier's instructions. Each cell line was grown in a 25 cm^2 flask, stably transfected with pcDNA4 vector carrying […]-7 or pcDNA3 carrying iNOS, using SuperFect transfection reagents (Qiagen) following the manufacture's instructions. Stable cell lines were selected using 0.5 mg/ml of G-418 for pcDNA3 or 0.12 μg/ml of zeocin for pcDNA4. To induce the iNOS activity, cell lines were transfected with iNOS in pcDNA3 or stimulated with 3 μg/ml of lipopolysaccharides (LPS) for 12-16 h (27) or 10 μM A β1-42 peptide for 18 h. Two different approaches of double transfection with […]-7 and iNOS were used to determine the effects of […]-7 on iNOS. The cell line stably expressing […]-7 was transiently transfected with iNOS, and conversely, the cell line stably expressing iNOS was transiently transfected with increasing amounts of pcDNA4 carrying […]-7 or […] domains.

[2] = system: iNOS; test: iNOS activity in cell lines stably transfected with Kalirin-7, iNOS induced by iNOS plasmid, LPS or LPS plus Aβ1-42; type: cell-based; conditions: for iNOS activity: AtT20, SH-SY5Y, Neuro2A and C6 cell lines, iNOS raised by iNOS plasmid, LPS, or LPS plus Aβ1-42, Canavanine or L-NAME 10 mM; for Aβ1-42-augmented iNOS activity: LPS plus Aβ1-42 treated cell lines
Experimental: Assays for iNOS and NOS—The hippocampal and cerebellar specimens and the transfected cells were homogenized in 50 mM Tris HCl (pH 7.4), 1 mM EDTA, 0.1 mM tetrahydrobiopterin, 2 mM dithiothreitol, 10% (v/v) glycerol, aprotinin (25 μg/ml), leupeptin (25 μg/ml), 100 μM PMSF, 10 μM FMN, and 10 μM FAD. The homogenates were centrifuged at 2,000×g for 15 min, and the supernatants were assayed for iNOS. iNOS was also assayed in the presence of 10 mM Canavanine (Sigma) or L-NAME (Sigma). The collective activity of NOS (including eNOS, nNOS and iNOS) was determined in an identical fashion to iNOS activity, but in the presence of 1.25 mM Ca^2+.
Preparation of Aβ1-42 peptide—One mM of A β1-42 (Biosource) was prepared in a capped vial at 37° C. for 5 days, and stored at −20° C. The frozen stock solution was diluted and used at the final concentration of 10 μM.
Cell culture and transfection—AtT-20 cells (ATCC# CCL-89), SH-SY5Y cells (ATCC# CRL-2266), C6 cells (ATCC# CCL-107) and Neuro-2A cells (ATCC # CCL-131) were cultured according to the supplier's instructions. Each cell line was grown in a 25 cm^2 flask, stably transfected with pcDNA4 vector carrying Kalirin-7 or pcDNA3 carrying iNOS, using SuperFect transfection reagents (Qiagen) following the manufacture's instructions. Stable cell lines were selected using 0.5 mg/ml of G-418 for pcDNA3 or 0.12 μg/ml of zeocin for pcDNA4.
To induce the iNOS activity, cell lines were transfected with iNOS in pcDNA3 or stimulated with 3 μg/ml of lipopolysaccharides (LPS) for 12-16 h (27) or 10 μM A β1-42 peptide for 18 h. Two different approaches of double transfection with Kalirin-7 and iNOS were used to determine the effects of Kalirin-7 on iNOS. The cell line stably expressing Kalirin-7 was transiently transfected with iNOS, and conversely, the cell line stably expressing iNOS was transiently transfected with increasing amounts of pcDNA4 carrying Kalirin-7 or Kalirin domains.

[3] = system: AtT-20 cells stably expressing iNOS; test: Renilla luciferase assay as transfection reference for toxic effect of plasmid DNA; type: cell-based, mouse; conditions: increasing plasmid amounts co-transfected with constant pRL-TK vector
Experimental: To test the putative toxic effect of high concentrations of plasmid DNA, up to 2.5 μg, the Renilla luciferase assay (Promega) was used as a transfection reference. The AtT-20 cells stably expressing iNOS were transiently transfected with a constant amount of the pRL-TK vector (Promega) carrying Renilla luciferase and increasing amounts of the Kalirin plasmid. The co-transfected cells were assayed for iNOS and luciferase following the manufacturer's instructions.

[4] = target: T1, iNOS; test: Co-immunoprecipitation of iNOS with Kalirin-7 by anti-Kalirin in co-transfected AtT-20 cells; type: binding; conditions: increasing amounts of Kalirin-7 plasmid
Experimental: Immunoblot and immunoprecipitation—Proteins were extracted. Brain samples were directly solubilized in 10 volume of lysis buffer (50 mM Tris HCl at pH 7.5, 120 mM NaCl, 5 mM EDTA, 1% Nonidet P-40 (0.3 mg/ml), 8 μg/ml aprotinin, 2 μg/ml pepstatin A, 2 μg/ml leupeptin, 1 mM Na3VO4, 50 mM NaF and 0.2% of SDS) using Omni 2000 homogenizer (Omni International Inc). The solubilized samples were centrifuged at 15,000×g for 10 min, the supernatants were saved, and protein concentration was measured by the Bradford method. Cultured cells were suspended in another lysis buffer consisting of 100 mM Tris HCl (pH7.5), 150 mM NaCl, 2 mM EDTA, 0.5% of Triton X-100, 1 mM PMSF, 4 μg/ml aprotinin, 1 μg/ml pepstatin A, 1 μg/ml leupeptin, 1 mM Na3VO4, 50 mM NaF and 0.2% of SDS), and processed.
An equal protein-amount of solubilized supernatants was resolved by SDS-PAGE and blotted onto polyvinylidene difluoride membrane. The membranes were incubated for 1 h in blocking solution containing 3% bovine serum albumin. The membranes were incubated for 1 h with primary antibodies diluted 1:500 in Tris-buffered saline containing 0.1% Tween 20. After washing, membranes were incubated for 1 h in 1:10,000 dilution of secondary antibodies coupled to horseradish peroxidase. […] Blots were scanned, and the band intensity was digitized and quantified using Molecular Dynamics Image Quant 5.1. […]

T1 sequence (P35228 whole entry, species assumed, the tested form may be a part): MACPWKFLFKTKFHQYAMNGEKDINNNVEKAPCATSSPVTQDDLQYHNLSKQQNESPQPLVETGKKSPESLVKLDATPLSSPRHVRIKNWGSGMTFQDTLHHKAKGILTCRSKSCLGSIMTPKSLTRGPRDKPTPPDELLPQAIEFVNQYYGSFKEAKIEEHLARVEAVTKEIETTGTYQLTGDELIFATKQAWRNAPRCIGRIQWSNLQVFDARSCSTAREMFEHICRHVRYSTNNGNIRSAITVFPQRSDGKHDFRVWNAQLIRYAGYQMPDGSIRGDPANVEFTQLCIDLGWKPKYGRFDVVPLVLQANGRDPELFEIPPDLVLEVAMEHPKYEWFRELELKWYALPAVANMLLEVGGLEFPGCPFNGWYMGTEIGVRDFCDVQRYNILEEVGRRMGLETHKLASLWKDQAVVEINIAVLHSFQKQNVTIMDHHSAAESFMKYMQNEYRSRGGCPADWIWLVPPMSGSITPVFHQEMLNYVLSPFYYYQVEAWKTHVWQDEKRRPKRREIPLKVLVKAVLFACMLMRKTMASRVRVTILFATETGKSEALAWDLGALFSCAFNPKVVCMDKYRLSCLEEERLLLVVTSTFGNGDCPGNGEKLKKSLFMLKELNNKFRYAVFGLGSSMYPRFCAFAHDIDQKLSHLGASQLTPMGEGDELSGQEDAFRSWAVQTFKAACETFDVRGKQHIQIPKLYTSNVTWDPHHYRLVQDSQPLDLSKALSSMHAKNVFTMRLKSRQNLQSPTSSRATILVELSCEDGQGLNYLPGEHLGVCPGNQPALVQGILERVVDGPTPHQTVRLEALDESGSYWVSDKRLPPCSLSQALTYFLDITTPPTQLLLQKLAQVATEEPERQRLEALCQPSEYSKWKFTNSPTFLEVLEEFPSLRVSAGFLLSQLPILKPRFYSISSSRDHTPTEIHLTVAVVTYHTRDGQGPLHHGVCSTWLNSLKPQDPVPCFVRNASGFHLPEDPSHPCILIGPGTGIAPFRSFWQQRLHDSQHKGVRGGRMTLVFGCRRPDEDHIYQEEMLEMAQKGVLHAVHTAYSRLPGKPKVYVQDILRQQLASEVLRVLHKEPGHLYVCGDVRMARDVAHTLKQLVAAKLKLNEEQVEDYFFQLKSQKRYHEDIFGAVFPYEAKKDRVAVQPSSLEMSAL

KAARHLEVRIQDFVRRVEQRKLLLDMSVSFHTH (also: Flag epitope tag; listed as Homo sapiens) [section # 8]
suppression of iNOS versus plasmid concentration ([1]; increasing amounts of Kalirin section 8 plasmid): dependent on the concentration | iNOS suppression ([1]; transient transfection with pcDNA4 carrying individual 33 amino acid sections, compared with D2 and wild type Kalirin 7): suppressed most effectively

D2: Kalirin domain consisting of the 354 amino acid V506-Q860 sequence of SEQ ID NO:2, expressed from pcDNA4
iNOS activity ([1]; transient transfection with pcDNA4 carrying individual Kalirin-7 domains): attenuated; also recorded: most notably attenuated

N=C(N)NOCC[C@H](N)C(=O)O [Canavanine]
iNOS activity [2]: suppressed to basal levels | Aβ1-42-augmented iNOS activity [2]: attenuated

Aβ1-42: amyloidogenic peptide Aβ1-42 (Biosource), used at 10 μM
iNOS activity induced by LPS treatment ([2]; LPS plus 10 μM Aβ1-42, stable cell lines): augments iNOS activity

COC(=O)[C@@H](N)CCCNC(=N)N[N+](=O)[O-] [L-NAME]
iNOS activity [2]: suppressed to basal levels | Aβ1-42-augmented iNOS activity [2]: attenuated

Kalirin-7: cytoplasmic protein of >1,660 amino acids (SEQ ID NO:2), expressed from pcDNA4 carrying the Kalirin-7 cDNA
iNOS activity [2]: suppressed to basal levels | Aβ1-42-augmented iNOS activity [2]: attenuated | iNOS activity ([1]; increasing amounts of pcDNA4 Kalirin-7 vector): decreased | synthesis and activity of Renilla luciferase (putative toxic effect of plasmid) [3]: did not impair | iNOS co-immunoprecipitated by anti-Kalirin [4]: increasing concentrations of iNOS were co-immunoprecipitated
